How the values were obtained:
[1] = Solubility in DMSO; format: physicochemical; settings: order SJ-2<SJ-24<SJ-3<SJ-11
Text: The solubility of the four compounds in DMSO is poor, SJ-2<SJ-24<SJ-3<SJ-11, and therefore it is estimated and this is the reason why the three compounds which have previously proven to be effective against PC-3 cell line by SRB assays are ineffective in this experiment.

[2] = test system: 60 cancer cell lines; test: NCI five-dose level screening test, second stage (GI50, TGI, LC50); format: cell-based; settings: for Subpanel MID^b (average sensitivity of all cell line of a particular subpanel) / MID^a (average sensitivity of all cell line): GI50; for MID^a (average sensitivity of all cell line): all cell lines
Text: From the results, compounds SJ-3 (NSC 772864) and SJ-10 (NSC 772862) were selected by NCI for a five-dose level screening test and the mean growth percentage of the 60 cancer cell lines for the two compounds are 62.4 and −14.37, respectively. […] A summary of the NCI data provides information on the inhibition effect of various compound in different cancer cell lines (FIGS. 3 to 16 and Tables 3 to 8). […] Table 9 indicates the GI50, TGI and LC50 of the NCI data of TC-XCl, SJ-3 and SJ-10 NCI.

[3] = Non-Small Cell Lung Cancer subpanel

| Structure (SMILES) | solubility in DMSO [1] | Selectivity ratio (MID^a:MID^b) ([2]; Breast Cancer subpanel) | Subpanel MID^b (average sensitivity of all cell line of a particular subpanel) ([2]; Breast Cancer subpanel) [µM] | Selectivity ratio (MID^a:MID^b) ([2]; CNS Cancer subpanel) | Subpanel MID^b (average sensitivity of all cell line of a particular subpanel) ([2]; CNS Cancer subpanel) [µM] | Selectivity ratio (MID^a:MID^b) ([2]; Colon Cancer subpanel) | Subpanel MID^b (average sensitivity of all cell line of a particular subpanel) ([2]; Colon Cancer subpanel) [µM] | Selectivity ratio (MID^a:MID^b) ([2]; Leukemia subpanel) | Subpanel MID^b (average sensitivity of all cell line of a particular subpanel) ([2]; Leukemia subpanel) [µM] | Selectivity ratio (MID^a:MID^b) ([2]; Melanoma subpanel) | Subpanel MID^b (average sensitivity of all cell line of a particular subpanel) ([2]; Melanoma subpanel) [µM] | Selectivity ratio (MID^a:MID^b) [2, 3] | Subpanel MID^b (average sensitivity of all cell line of a particular subpanel) [2, 3] [µM] | Selectivity ratio (MID^a:MID^b) ([2]; Ovarian Cancer subpanel) | Subpanel MID^b (average sensitivity of all cell line of a particular subpanel) ([2]; Ovarian Cancer subpanel) [µM] | Selectivity ratio (MID^a:MID^b) ([2]; Prostate Cancer subpanel) | Subpanel MID^b (average sensitivity of all cell line of a particular subpanel) ([2]; Prostate Cancer subpanel) [µM] | Selectivity ratio (MID^a:MID^b) ([2]; Renal Cancer subpanel) | Subpanel MID^b (average sensitivity of all cell line of a particular subpanel) ([2]; Renal Cancer subpanel) [µM] | MID^a (average sensitivity of all cell line) [2] [µM] |
| --- | --- | --- | --- | --- | --- | --- | --- | --- | --- | --- | --- | --- | --- | --- | --- | --- | --- | --- | --- | --- |
| CN(C)c1nc2ccccc2c2c1-c1ccc(Cl)cc1C2=O [SJ-2, 9-Chloro-6-(dimethylamino)-11H-indeno[1,2-c]quinolin-11-one] | poor |  |  |  |  |  |  |  |  |  |  |  |  |  |  |  |  |  |  |  |
| CCN(CC)CCNc1nc2ccccc2c2c1-c1ccc(Cl)cc1C2=O [SJ-3, 6-(2-(Diethylamino)ethylamino)-9-chloro-11H-indeno[1,2-c]quinolin-11-one] | poor | 1.159 | 12.345 | 0.962 | 14.875 | 0.778 | 18.400 | 1.475 | 9.696 | 0.914 | 15.654 | 1.210 | 11.819 | 0.820 | 17.448 | 0.914 | 15.650 | 1.124 | 12.733 | 14.306 |
| O=C1c2cc(Cl)ccc2-c2c(N3CCNCC3)nc3ccccc3c21 [SJ-10, 9-Chloro-6-(piperazin-1-yl)-11H-indeno[1,2-c]quinolin-11-one] |  | 1.541 | 6.813 | 1.304 | 8.053 | 1.075 | 9.763 | 0.954 | 11.000 | 0.528 | 19.894 | 1.621 | 6.477 | 0.772 | 13.591 | 1.959 | 5.360 | 1.648 | 6.370 | 10.498 |

From patent US20150197492A1, “NOVEL INDENO[1,2-c]QUINOLIN-11-ONE DERIVATIVES, PREPARATION METHOD AND APPLICATION THEREOF” (National Defense Medical Center, priority 2014, published 2015)
